How the values were obtained:
[1] = system: human CD23+ monocyte-derived macrophages; assay: Nitrite (NO) generation by CD23-activated human macrophages, Griess reaction; assay type: cell-based; conditions: for iNOS-mediated NO generation: pre-incubation prior to CD23-mediated activation, mean±s.d. of 7 donors (Figure 2C)
Method: Figure 2 Inhibition of CD23-mediated activation of iNOS pathway in human macrophages by p30A. Human CD23^+ monocyte-derived macrophages were incubated with cross-linking CD23-McAb (20 µg/ml) alone or following 1 h pre-incubation with 10 µg/ml of various peptides. […] Expression of iNOS mRNA was compared to HPRT mRNA levels. (B) Inhibition of NO generation from human activated macrophages by synthetic peptides. Cell supernatants were collected 72 h following cell cultures and levels of nitrites were determined. […] Results are expressed as mean of 3 distinct donor cell preparations (SEM<20%). (C) Inducible NOS-mediated NO generation in human macrophages is decreased following pre-incubation with p30A or L-NIL prior to CD23-mediated activation. Results are expressed as mean±s.d. of 7 distinct donor cell preparations.
(§1) Monocytes or macrophages were activated through CD23 pathway: while monocytes/macrophages from RA patients express CD23, monocytes from healthy donors must be pre-activated to express surface CD23 as described. This pre-activation was obtained by incubation of healthy monocytes with recombinant human IL-4 (20 ng/ml) during 48 h at 37°C; After washing, all cell populations were tested by flow cytometry for their surface CD23 expression (>80% CD23^+) and then incubated in the presence of cross-linking CD23-MAb (clones 135 or DM2, IgG1k, 20 µg/ml) during 48–72 h, or IgE and anti-IgE as described, [17]. When indicated, peptides were added to the cells 2 h prior to their activation. Cells supernatants were then analyzed for their nitric oxide content (see below) and for the presence of cytokines: levels of TNF-α and IL-6 were determined in duplicates for each sample by a specific ELISA (R&D, Paris, France) while levels of IL-1β, IL-8 and IL-10 was determined using FlowCytomix Human Th1/Th2 Kit as recommended (Bender Medsystems, Vienna, Austria).
Culture supernatants (72 h) were assayed for the stable end-product of NO, NO2 ^− using the Griess reaction modified as detailed elsewhere. Inhibitory analog of L-arginine, L-NIL (N(6)-(1-iminoethyl)-L-lysine/2HCl, Coger SA, Paris, France) was used to inhibit iNOS-mediated NO generation. This method gave a sensitivity limit of 0.2 µM if low NO2 ^− medium (DMEM) was used. Total RNA was isolated as above from peritoneal macrophages. Reverse transcription-PCR was performed with an automatic thermal cycler (iCycler, Biorad) using the following specific primers: iNOS mRNA sense (5′-[…]-3′, exon 8) and iNOS mRNA antisense (5′-[…]-3′, exon 11). Hypoxanthine phosphoribosyltransferase (HPRT) mRNA sense (5′-[…]-3′) and HPRT mRNA antisense (5′-[…]- 3′) primers were used as controls. The iNOS messenger is represented by a 371-bp band, whereas a 496-bp band indicates the HPRT messenger.

[2] = system: healthy human PBL-derived macrophages; assay: Inflammatory mediator release from healthy human PBL-derived macrophages; assay type: cell-based; conditions: mean±s.d.
Method: Figure 4 Inhibition of inflammatory mediator generation from healthy human PBL-derived macrophages by p30A. Decreased levels of TNF-α (A), IL-6 (B), IL-1β, IL-8 and IL-10 (C) were detected in CD23-activated cells after incubation with p30A. […] Values are mean±s.d. of cells from 5 (IL-6, TNF-α) or 2 (IL-1β, IL-8, IL-10) different donors.
as §1

[3] = system: adjuvant-induced arthritis in rats; assay: Adjuvant-induced arthritis (AIA) clinical score in rats; assay type: in vivo, rat, Female Lewis; conditions: AIA rats; pCtl 100 mg/rat
Method: Figure 6 Inhibition of in vitro and in vivo inflammatory responses in rats by p30A peptide. (A) Rat peritoneal macrophages were activated via CD23 antigens with/without p30A, L-NIL or pCtl. Cell supernatants were collected 48 h later and nitrite levels were quantified. Values are mean±s.d. of cells from 3 different rats. (B) Cumulative clinical score/rat obtained following 50 days post-immunization in all groups. AIA rats were treated either after or before (d0) the onset of symptoms. Treatment consisted of p30A, hydrocortisone (HC, 30 mg/rat)) or pCtl (100 mg/rat). Shown are means of cumulative score/rat±s.d. from 5 (HC) or 8 rats (other conditions). (C) Evolution of arthritis severity scores of adjuvant-induced arthritis (AIA) in rats treated with intracutaneous p30A or pCtl (100 mg/rat) or hydrocortisone (after the onset of clinical signs as illustrated by arrows (means from 8 rats, s.e.m.<20%). (D) Histopathologic analysis confirm p30A ability to decrease all components of AIA lesions: pannus formation and inflammation of the synovium (P), deformity of joint and bones (asterix), bone remodeling and destruction (arrowhead), bone neoformation (arrows) and cartilage destruction.
All animal procedures were performed in strict accordance with the guidelines issued by the European Economic Community “86/609”. Female Lewis rats (Janvier, Le Genest St Isle, France) were housed under standard laboratory conditions with free access to food and water. The temperature was kept at 22±2°C and a 12 hour light/dark schedule was maintained.
Adjuvant arthritis was induced in six week-old animals by subcutaneous injection at the base of the tail of 300 µl containing 1.8 mg of inactivated Mycobacterium butyricum (Difco Laboratories, Detroit, MI) diluted in emulsion of 8 ml Vaseline, 1 ml polysorbate 80, and 1 ml PBS (Phosphate Buffer Saline, Eurobio). Rats were boosted one week later following the same procedure. Observation was conducted for up to 50 days following immunization for clinical signs of arthritis. Rats were divided in different groups of 8 rats. Groups were treated with five injections (every 2 days) of either p30A (10, 50 or 100 mg in a PBS solution), pCtl, hydrocortisone (Sigma Aldrich) or PBS solution. Injections were initiated two days after the appearance of first arthritic symptoms (therapeutic) or on the first day of immunization (preventive). Evaluation of AIA severity was performed by two independent observers who where not aware of the study protocol. The severity of AIA in each paw was quantified daily using an ordinal clinical score measurement from 0 to 4 as follows: no signs of inflammation ( = 0); swelling alone (>2 fold paw diameter) ( = 1) or swelling/immobility ( = 2) of one paw; swelling ( = 3) or swelling/immobility ( = 4) of two paws. Weight evolution of rats was measured daily. Rats were sacrificed 50 days after AIA induction. Peritoneal macrophages were collected and incubated in culture medium alone for 48 h. Quantification of TNF-α and IL-1β in rat cell supernatants was performed using appropriate ELISA kits and according to manufacturer's recommendations (Biosource, Montrouge, France).

[4] = system: peritoneal macrophages of AIA rats; assay: Ex vivo cytokine release from peritoneal macrophages of treated AIA rats, ELISA; assay type: in vivo, rat, Female Lewis; conditions: treatment after onset of symptoms (AIA+p30A, 10 mg/rat; HC 30 mg/rat); cells collected 50 days post-immunization; 48 h culture; 4 rats
Method: AIA rats were treated either after (AIA+p30A) or before (p30A+AIA) the onset of symptoms. Treatment consisted of p30A (10 mg/rat) or hydrocortisone (HC, 30 mg/rat). Rat peritoneal macrophages were collected following 50 days post-immunization, washed and re-incubated in culture medium alone. Cell supernatants were collected 48 h later and cytokine levels were quantified. Macrophages from healthy rats were also incubated in similar conditions. Values are mean±s.d. of cells from 4 different rats.
Adjuvant arthritis was induced in six week-old animals by subcutaneous injection at the base of the tail of 300 µl containing 1.8 mg of inactivated Mycobacterium butyricum (Difco Laboratories, Detroit, MI) diluted in emulsion of 8 ml Vaseline, 1 ml polysorbate 80, and 1 ml PBS (Phosphate Buffer Saline, Eurobio). Rats were boosted one week later following the same procedure. Observation was conducted for up to 50 days following immunization for clinical signs of arthritis. Rats were divided in different groups of 8 rats. Groups were treated with five injections (every 2 days) of either p30A (10, 50 or 100 mg in a PBS solution), pCtl, hydrocortisone (Sigma Aldrich) or PBS solution. Injections were initiated two days after the appearance of first arthritic symptoms (therapeutic) or on the first day of immunization (preventive). […] Rats were sacrificed 50 days after AIA induction. Peritoneal macrophages were collected and incubated in culture medium alone for 48 h. Quantification of TNF-α and IL-1β in rat cell supernatants was performed using appropriate ELISA kits and according to manufacturer's recommendations (Biosource, Montrouge, France).

asthma = conditions: Phase I; cited from earlier work
Excerpt: CD23 was also directly triggered by specific antibodies as therapeutic approach.

iNOS = conditions: cited from earlier work
Excerpt: Upon acquisition of CD23 surface expression, human cells may be activated using its biological ligands (e.g. IgE/antigen) or cross-linking with a specific anti-CD23 McAb, [16]. […] To confirm the ability of p30A to inhibit CD23-mediated signaling in human macrophages, we pretreated cells with purified peptides prior to their activation by McAb. Synthetic p30A reduced the levels of inducible nitric oxide syntha ...

SFNYNYA [pCtl, reference compound]
NO (nitrite) generation, dose-dependence ([1]; CD23-McAb 20 µg/ml, 1 h pre-incubation with peptide, supernatants at 72 h, mean of 3 donors (SEM<20%)): no effect | iNOS-mediated NO generation [1]: not observed | IL-6 level ([2]; ELISA, 5 donors): No effect | TNF-α level ([2]; ELISA, 5 donors): No effect | IL-1β level ([2]; FlowCytomix, 2 donors): No effect | IL-8 level ([2]; FlowCytomix, 2 donors): No effect | IL-10 level ([2]; FlowCytomix, 2 donors): No effect | beneficial effect on arthritis [3]: this beneficial effect was not found

C[C@]12CCC(=O)C=C1CC[C@@H]1[C@@H]2[C@@H](O)C[C@@]2(C)[C@H]1CC[C@]2(O)C(=O)CO [hydrocortisone, reference compound]
IL-1β release ex vivo, therapeutic [4]: moderately decreased IL-1β levels

lumiliximab: Primate/human CD23-McAb, developed for the treatment of chronic lymphocytic leukemia
clinical outcome, asthma (asthma): promising therapy in Phase I of clinical trials for asthma

CC(=N)NCCCC[C@H](N)C(=O)O.Cl.Cl [L-NIL, N(6)-(1-iminoethyl)-L-lysine/2HCl, reference compound]
iNOS inhibition (iNOS): specific inhibitor of iNOS | iNOS-mediated NO generation [1]: decreased

Reference: PMC2652713, “Molecular Blocking of CD23 Supports Its Role in the Pathogenesis of Arthritis” (PLoS ONE, 2009)
